Test results as given in patent US11453632B2, “1-phenyl-2-phenylethane derivative” (KAO CORPORATION, priority 2018, dated 2022).

Tests used:
[1] = test system: uterus of ovariectomized rat; assay: Uterus weight in ovariectomized (OVX) rat; type: in vivo
Description: 8-week-old female Crl:CD (SD) rats were obtained from Charles River Laboratories Japan, Inc. and individually identified by the ear punching method on the receipt date. Then, an acclimatization period was established for 1 week. The animals were raised in a rearing room under a set environment involving a temperature of 22±3° C., a humidity of 50±20%, air ventilation from 13 to 17 times/hour, and a lighting time from 8:00 to 20:00. During the acclimatization period, the rats were allowed to freely ingest solid feed CRF-1 (Oriental Yeast Co., Ltd.). Since the feeding with CRF-1, the rats were allowed to freely ingest customized feed AIN-93G (Oriental Yeast Co., Ltd.) free from components derived from soybeans.
On the end date of acclimatization and the following day, the flank cavity was opened under isoflurane anesthesia to harvest the right and left ovaries including fallopian tubes. Other non-OVX rats were subjected to only opening and suture (sham surgery). Immediately thereafter, an antibiotic was subcutaneously administered at a dose of 100 μl/animal. After the surgery, the sham surgery or OVX animals were given customized feed and raised for approximately 1 week.
From 1.5 hours before a shift from the light phase to the dark phase (18:30), a negative solvent (DMSO) or a test substance was subcutaneously administered at a dose of 0.5 ml/kg to the back of the neck according to Table 3 described below using a syringe and an injection needle.
After the completion of all procedures of measurement and analysis, the rats were euthanized by blood letting under isoflurane anesthesia, and the uterus was harvested. Wet weights were measured.
Skin temperatures differed largely among individuals, and the Smirnov-Grubbs test was conducted in order to exclude outliers beforehand. Results of measuring tail skin temperatures and results of measuring uterus weights were statistically analyzed by testing using the Dunnett's test.

ERβ = molecular target: T1, ERβ (Homo sapiens, UniProt Q92731); assay: Ability to activate transcription mediated by ERβ (pcDNA3-ERβ, pERE luciferase, HEK293 cells); type: cell-based; details: negative control 0.001475
T1 construct: host or cells: HEK293
T1 sequence (Q92731 whole entry): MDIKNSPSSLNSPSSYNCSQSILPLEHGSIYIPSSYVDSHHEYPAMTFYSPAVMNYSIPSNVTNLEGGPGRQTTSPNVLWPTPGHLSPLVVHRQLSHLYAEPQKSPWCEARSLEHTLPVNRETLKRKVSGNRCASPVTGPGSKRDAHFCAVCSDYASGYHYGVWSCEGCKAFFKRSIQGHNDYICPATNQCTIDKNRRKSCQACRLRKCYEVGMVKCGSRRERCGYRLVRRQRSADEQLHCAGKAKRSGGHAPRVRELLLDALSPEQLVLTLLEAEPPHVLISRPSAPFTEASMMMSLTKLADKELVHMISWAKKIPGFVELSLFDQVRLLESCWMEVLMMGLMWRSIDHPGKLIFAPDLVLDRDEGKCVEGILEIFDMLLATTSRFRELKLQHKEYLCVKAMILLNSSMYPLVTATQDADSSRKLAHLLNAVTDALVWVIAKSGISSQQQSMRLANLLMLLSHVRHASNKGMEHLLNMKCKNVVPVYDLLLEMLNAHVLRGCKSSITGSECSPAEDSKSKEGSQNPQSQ
Description: 1) Experimental Method (Measurement of Transcriptional Activity Mediated by ERs)
HEK293 cells were inoculated at a cell density of 4.0×10^4 cells/well to a 96-well plate. After 12 hours therefrom, the medium was replaced with a culture solution (DMEM containing 5% (v/v) charcoal-treated serum). The cells were cotransfected with pcDNA3-ERα or pcDNA3-ERβ (Promega Corp.) and pERE and pRL-CMV (Promega Corp.) using Lipofectamine 2000 (Invitrogen Corp.) according to the protocol attached to the product. 24 hours after transfection, the medium was replaced with a culture medium containing a test sample, followed by culture for another 24 hours. Then, luciferase activity was measured using Dual-Glo™ Luciferase Assay System (Promega Corp.) according to the attached protocol. The luminescence intensity of firefly luciferase (index for the ability to activate transcription mediated by ERE) was divided by the luminescence intensity of Renilla reniformis luciferase (index for the transfection efficiency of the plasmids) to calculate a relative light unit (RLU).

Oc1ccc(CC(C=C(F)F)c2ccc(O)cc2F)c(F)c1 (stereo not drawn) [Compound 17-F, 4,4′-(4,4-difluorobut-3-ene-1,2-diyl)bis(3-fluorophenol)]
uterus wet weight (FIG. 6) ([1]; 4 μg/kg/day subcutaneous, vs negative solvent group): no change in uterus weight was confirmed
uterus wet weight (FIG. 6) ([1]; increased dose of compound 17-F (40, 400 μg/kg/day) subcutaneous): elevated in a concentration-dependent manner
relative light unit (RLU), transcription activation ERβ (ERβ; 0.01 pM): 0.002468
relative light unit (RLU), transcription activation ERβ (ERβ; 0.1 pM): 0.004255
relative light unit (RLU), transcription activation ERβ (ERβ; 1 pM): 0.01104
relative light unit (RLU), transcription activation ERβ (ERβ; 10 pM): 0.03023
relative light unit (RLU), transcription activation ERβ (ERβ; 100 pM): 0.03238
relative light unit (RLU), transcription activation ERβ (ERβ; 1000 pM): 0.03342
relative light unit (RLU), transcription activation ERβ (ERβ; 10000 pM): 0.03507
